Source: patent publication US5081148A, “Blocking agents of EDRF effect or formation for the treatment of shock” (Societe de Conseils de Recherches et d'Applications …, priority 1989, dated 1992)

Tests used:
[1] = test system: vascular reactivity (methoxamine); experiment: Vascular reactivity to methoxamine in pithed rats perfused with endotoxin (EDTX); type: in vivo, Male Sprague Dawley rats; settings: for inhibition of vascular hyporeactivity: pithed rats, endotoxin 300 μg/kg/h, 60 min
Method: Male Sprague Dawley rats (280-320 g) were pithed and perfused continuously with endotoxin (EDTX, Escherichia Coli lipopolysaccharide OIII: B4; 300 μg/kg/h) for 60 min.

[2] = Blood pressure in pithed rats perfused with endotoxin; type: in vivo, Male Sprague Dawley rats; settings: endotoxin 300 μg/kg/h, 60 min
Method: Male Sprague Dawley rats (280-320 g) were pithed and perfused continuously with endotoxin (EDTX, Escherichia Coli lipopolysaccharide OIII: B4; 300 μg/kg/h) for 60 min. […] A 60 min perfusion of endotoxin lipopolysaccharide (300 μg/kg/h) to pithed rats led to hypotension and impaired the vascular reactivity to pressor agents as observed in septic and endotoxinic shock in human. […] Their effects on blood pressure are however less marked. Association of blockers of cyclooxygenase (aspirin, indomethacin for instance . . . ) and blockers of EDRF results on a highly significative synergistic protective effect in both vascular hyperactivity and decrease of blood pressure induced by shock.

[3] = test system: EDRF; experiment: Restoration of depressed response to catecholamines / inhibition of vascular hyporeactivity (general statement)
[4] = test system: thoracic aorta rings; experiment: Contractile responses of thoracic aorta rings from endotoxin-treated rats (PE-induced contraction, loss of tonicity), organ bath; set-up: species or system Sprague Dawley rats; settings: rings from endotoxin-treated animals; compounds of the invention at 10, 30 or 100 μM, with or without endothelium
Method: Sprague Dawley rats (220-330 g) received a 10 mg/kg ip injection of Escherichia Coli endotoxin (0114B4 Sigma). After 3 hours, rats were sacrificed by cervical dislocation and the thoracic aorta removed and cleaned of the surrounding tissue. Rings 2 mm wide were suspended under a tension of 2 g at 37° C. in organ bath containing 10 ml of Krebs Henseleit physiological solution and gassed with 95% O2 /5% CO2. Contractile responses were measured using force displacement transducers (Auguet M., Delaflotte S., P. E. Chabrier, P. Braquet Comparative effects of endotelin and phorbol 12-13 dibutyrate in rat aorta. Life Sci. 45, 21, 2051-2059, 1989).
In some experiments, the endothelium was gently disrupted (-E). Phenylephrine (PE) induced contraction was stable over the time in control rings of animals receiving saline solution (0.9% NaCl) with (E+) or without (E-) endothelium. The arginine derivative (10, 30 or 100 μM) had no significant effect per se.
This phenomenon was accentuated with intact endothelium (E+).
In some experiments, the compounds of the invention were introduced in the bath 105 minutes after PE when the tissue had completely its tonicity. Under these conditions, the compounds of the invention, alone, were able to curatively and totally restore the contraction and therefore contribute extensively to vascular hyporesponsiveness to vasoconstrictor agents in shock. […]

Compound | inhibition of vascular hyporeactivity [1] | effects on blood pressure [2] | restoration of depressed response to catecholamines and inhibition of vascular hyporeactivity [3] | other results
COc1ccc(OC)c(C(O)C(C)N)c1 (stereo not drawn) [methoxamine, reference compound] |  |  |  | ED50 ([1]; Rattus norvegicus, control rats, cumulative dose-response): 0.079 ± 0.009 mg/kg
CNC(=N)NCCC[C@H](N)C(=O)O [L-NMMA, L-N-monomethyl arginine] | inhibited in a dose dependent manner | less marked | able to restore depressed response to catecholamines and to effectively inhibit vascular hyporeactivity | 
COC(=O)[C@@H](N)CCCNC(=N)N[N+](=O)[O-] [L-NAME, L-nitroarginine methyl ester] | inhibited in a dose dependent manner | less marked | able to restore depressed response to catecholamines and to effectively inhibit vascular hyporeactivity | 
CNC(=N)NCCC[C@@H](N)C(=O)O [(D) N-methyl arginine, reference compound] |  |  |  | activity in the field of the present invention [3]: deprived of any activity
N=C(N)NCCC[C@H](N)C(=O)O [L-arginine] |  |  |  | effect on loss of tonicity in endotoxin treated preparation [4]: enhanced the loss of tonicity
CC(=N)NCCC[C@H](N)C(=O)O [L-NIO, L-iminoethylornithine] | inhibited in a dose dependent manner | less marked | able to restore depressed response to catecholamines and to effectively inhibit vascular hyporeactivity | 
